Reference: patent US20170029355A1, “LABILE ESTERS OF AGROCHEMICALS FOR CONTROLLED RELEASE AND REDUCTION OF OFF-SITE MOVEMENT” (Monsanto Technology LLC, priority 2011, published 2017)

Tests used:
hemp sesbania = experiment: Field testing of emulsifiable concentrates, post-emergent control (Example 38); type: in vivo; conditions: for post-emergent control of hemp sesbania compared with the dicamba salt, in words: 280 and 420 g dicamba acid equivalent per hectare; for % control, 280 g/ha, Hemp sesbania: 280 g dicamba acid equivalent per hectare; for % control, 280 g/ha, Hemp sesbania / % control, 420 g/ha, Hemp sesbania: 11 or 21 days after treatment; for % control, 420 g/ha, Hemp sesbania: 420 g dicamba acid equivalent per hectare
Text: (§1) Four dicamba esters, 1a, 2, 9, and 13a, were formulated as emulsifiable concentrates for field testing. All formulations contained 5% each of a alkylbenzene sulfonate calcium salt (Huntsman NANSA EVM 62/H or Akzo Nobel WITCONATE P-1220 EH) and castor oil ethoxylate (Huntsman SURFONIC CO-54) as the emulsifiers and Aromatic 200 (Exxon) or monochlorobenzene (MCB) as the solvent.
(§2) The esters were compared to the diglycolamine salt of dicamba (CLARITY™) for post-emergent control of three broadleaf weeds: velvetleaf, morning glory, and hemp sesbania. Rates of 280 and 420 g dicamba acid equivalent per hectare were used. […] Evaluations were conducted at 11 or 21 days after treatment. Locations and timing were identical for all formulations tested.

morning glory = experiment: as above; type: in vivo; conditions: for post-emergent control of morning glory compared with the dicamba salt, in words: 280 and 420 g dicamba acid equivalent per hectare; for % control, 280 g/ha, Morning glory: 280 g dicamba acid equivalent per hectare; for % control, 280 g/ha, Morning glory / % control, 420 g/ha, Morning glory: 11 or 21 days after treatment; for % control, 420 g/ha, Morning glory: 420 g dicamba acid equivalent per hectare
Text: as §1, §2

velvetleaf [1] = experiment: as above; type: in vivo; conditions: for post-emergent control of velvetleaf compared with the dicamba salt, in words: 280 and 420 g dicamba acid equivalent per hectare; for % control, 280 g/ha, Velvetleaf: 280 g dicamba acid equivalent per hectare; for % control, 280 g/ha, Velvetleaf / % control, 420 g/ha, Velvetleaf: 11 or 21 days after treatment; for % control, 420 g/ha, Velvetleaf: 420 g dicamba acid equivalent per hectare
Text: as §1, §2

Euphorbia species = experiment: Field testing for post-emergent activity in the Southern Hemisphere (Example 39); type: in vivo; conditions: 9 as suspension concentrate, other esters as emulsifiable concentrates; for % control, 0.25 lb/ac (0.28 kg/hectare): 0.25 lb dicamba a.e. per acre; for % control, 0.50 lb/ac (0.56 kg/hectare): 0.50 lb dicamba a.e. per acre
Procedure: The primary weeds were Euphorbia species. Ester 9 was tested as a suspension concentrate using the formulation of Example 33 The other esters were tested as emulsifiable concentrates having the formulations shown in the table below. Akzo Nobel SPONTO EC 334 and SPONTO EC 336 along with SURFONIC CO-54 and […] (Huntsman) were used as emulsifiers and Aromatic 200 (A 200; Exxon) was used as the solvent. […] The diglycolamine salt of dicamba (CLARITYTM) was used as a comparator.

[2] = tested on: glyphosate-tolerant, dicamba-sensitive soy plants; experiment: Humidome volatility injury to dicamba-sensitive plants (Example 31); conditions: assessed after three weeks in greenhouse; for % Injury: soy plants 24 hours in closed humidome over sprayed soil (0.5% dicamba equivalent + 1.5% glyphosate), 35° C.; for Growth Stage: soy plants 24 hours in closed humidome over sprayed soil
Text: In this case, the diglycolamine salt of dicamba (CLARITY®) was used for comparison.
Dicamba photo-labile ester formulations from Example 28 were mixed with a commercial glyphosate formulation (ROUNDUP POWERMAX®) and diluted to provide a solution with a 0.5% dicamba equivalent concentrate of the ester (or dicamba diglycolamine salt) and 1.5% concentrate of glyphosate. The mixtures were sprayed at a 10 gallon per acre (93.5 liters per hectare) rate on soil in a plastic container (“humidome”) with a transparent lid. One soil container was sprayed with water as a control. Four glyphosate-tolerant, dicamba-sensitive soy plants between V2 and V3 stage were immediately placed on the sprayed soil and the domes attached to the trays with binder clips. The soy plants were in pots placed directly on the soil but with aluminum foil wrapped around the bottom to prevent uptake of dicamba or dicamba esters through the roots.
The closed containers were held for 24 hours in a growth chamber which was maintained at 35° C. with 40% relative humidity. The plants were then removed and grown in a greenhouse for three weeks. At this time plant injury and growth stage were assessed compared to the control treated with water only.

[3] = In vitro dicamba photo-release from photo-labile dicamba esters, tetrahydrofuran solvent (Example 26); type: physicochemical; conditions: THF, 0.1 mM ester; for Dark Control % dicamba: initial solution kept away from the light source, analyzed at conclusion of study
How it was run: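 Esters at 0.1 mM in THF, sealed in quartz tubes and exposed to simulated sunlight 14 h per day at 35 °C. Dicamba released was measured over the photolysis, with an unilluminated sample of the starting solution serving as dark control.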

[4] = In vitro photo-release and hydrolytic release of dicamba in an aqueous medium (Example 35); type: physicochemical; conditions: 0.01 mM ester, 35° C.
Procedure: This Example describes the determination of photo-lability and hydrolytic lability of dicamba esters in an aqueous medium. 1 mM solutions of the esters were prepared in acetonitrile (or […] solutions of dicamba diesters). The solutions were then diluted with deionized water to a concentration of 0.01 mM (or 0.005 mM for diesters). The solutions were then transferred to quartz tubes and amber bottles and held in a growth chamber by the procedure of Example 26. A 14-hour day was generally used at a constant temperature of 35° C. Hydrolytic activity was assessed by measuring the increase in dicamba concentration after day zero in the amber (dark) bottles. […] Photolysis manifested itself as increased conversion in the quartz tubes compared to the dark control.

velvetleaf [5] = experiment: Greenhouse post-emergent control of velvetleaf by emulsifiable concentrates (Example 29); type: in vivo; conditions: three weeks after treatment
How it was run: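 Greenhouse velvetleaf 10–15 cm tall sprayed post-emergence with photo-labile ester emulsifiable concentrates at 140, 280, 420 and 560 g dicamba equivalent/ha, alongside dicamba diglycolamine salt at the same rates and untreated plants. Percent control scored three weeks after treatment.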

broadleaf weeds = experiment: Control of broadleaf weeds by ester concentrates (statements of the description); type: in vivo; conditions: for control of a number of broadleaf weeds in field testing, in words: emulsifiable and suspension concentrates, Sesbania macrocarpa, morning glory, velvetleaf, Palmer amaranth, fat hen, sicklepod
Palmer amaranth = experiment: Extended pre-emergent control of Palmer amaranth; type: in vivo; conditions: emulsifiable concentrate, 21 and 44 days after treatment
[6] = simulated sunlight 14 hours per day, 35° C.

COc1c(Cl)ccc(Cl)c1C(=O)OCc1ccccc1[N+](=O)[O-] [Ester 1a, 2-Nitrobenzyl Ester of Dicamba]
post-emergent control of hemp sesbania compared with the dicamba salt, in words (hemp sesbania): equivalent to the dicamba salt
% control, 280 g/ha, Hemp sesbania (hemp sesbania): 95%
% control, 420 g/ha, Hemp sesbania (hemp sesbania): 98%
post-emergent control of morning glory compared with the dicamba salt, in words (morning glory): equivalent to the dicamba salt
% control, 280 g/ha, Morning glory (morning glory): 100%
% control, 420 g/ha, Morning glory (morning glory): 98%
post-emergent control of velvetleaf compared with the dicamba salt, in words (velvetleaf [1]): equivalent to the dicamba salt
% control, 280 g/ha, Velvetleaf (velvetleaf [1]): 86%
% control, 420 g/ha, Velvetleaf (velvetleaf [1]): 92%
% control, 0.25 lb/ac (0.28 kg/hectare) (Euphorbia species): 72%
% control, 0.50 lb/ac (0.56 kg/hectare) (Euphorbia species): 78%
% Injury [2]: 8%
Growth Stage [2]: 8
Dark Control % dicamba [3]: 1%
Conversion to dicamba, 1 day [3, 6]: 22%
Conversion to dicamba, 2 days [3, 6]: 33%
Conversion to dicamba, 3 days [3, 6]: 47%
Conversion to dicamba, 5 days [3, 6]: 66%
Conversion to dicamba, 7 days [3, 6]: 76%
Conversion to Dicamba, Dark, Day 0 ([4]; amber (dark) bottle): 7%
Conversion to Dicamba, Dark, Day 1 ([4]; amber (dark) bottle): 8%
Conversion to Dicamba, Dark, Day 2 ([4]; amber (dark) bottle): 8%
Conversion to Dicamba, Dark, Day 3 ([4]; amber (dark) bottle): 8%
Conversion to Dicamba, Dark, Day 4 ([4]; amber (dark) bottle): 7%
Conversion to Dicamba, Dark, Day 7 ([4]; amber (dark) bottle): 8%
Conversion to dicamba, Dark, Day 10 ([4]; amber (dark) bottle, Day 10): 8%
Conversion to Dicamba, Dark, Day 14 ([4]; amber (dark) bottle): 8%
Conversion to Dicamba, Dark, Day 21 ([4]; amber (dark) bottle, Day 21): 8%
Conversion to Dicamba, Dark, Day 28 ([4]; amber (dark) bottle, Day 28): 8%
Conversion to Dicamba, Light, Day 0 ([4]; quartz tube, 14-hour day): 7%
Conversion to Dicamba, Light, Day 1 ([4]; quartz tube, 14-hour day): 13%
Conversion to Dicamba, Light, Day 2 ([4]; quartz tube, 14-hour day): 16%
Conversion to Dicamba, Light, Day 3 ([4]; quartz tube, 14-hour day): 18%
Conversion to Dicamba, Light, Day 4 ([4]; quartz tube, 14-hour day): 21%
Conversion to Dicamba, Light, Day 7 ([4]; quartz tube, 14-hour day): 29%
Conversion to dicamba, Light, Day 10 ([4]; quartz tube, 14-hour day, Day 10): 37%
Conversion to Dicamba, Light, Day 14 ([4]; quartz tube, 14-hour day): 54%
Conversion to Dicamba, Light, Day 21 ([4]; quartz tube, 14-hour day, Day 21): 75%
Conversion to Dicamba, Light, Day 28 ([4]; quartz tube, 14-hour day, Day 28): 107%
% Control of velvetleaf, 140 g/ha (velvetleaf [5]; 140 g dicamba equivalent per hectare): 46%
% Control of velvetleaf, 280 g/ha (velvetleaf [5]; 280 g dicamba equivalent per hectare): 60%
% Control of velvetleaf, 420 g/ha (velvetleaf [5]; 420 g dicamba equivalent per hectare): 75%
% Control of velvetleaf, 560 g/ha (velvetleaf [5]; 560 g dicamba equivalent per hectare): 73%
control of a number of broadleaf weeds in field testing, in words (broadleaf weeds): proven effective
field efficacy for control of broadleaf weeds compared with the diglycolamine salt of dicamba, in words (broadleaf weeds; field tests of emulsifiable concentrates): slightly more effective than the diglycolamine salt of dicamba

COc1c(Cl)ccc(Cl)c1C(=O)Oc1cnc2ccccc2n1 [Ester 13a, 2-quinoxalinol ester of dicamba]
extended pre-emergent control of Palmer amaranth compared with the diglycolamine salt of dicamba, in words (Palmer amaranth): superior extended pre-emergent control
post-emergent control of hemp sesbania compared with the dicamba salt, in words (hemp sesbania): equivalent to the dicamba salt
% control, 280 g/ha, Hemp sesbania (hemp sesbania): 95%
% control, 420 g/ha, Hemp sesbania (hemp sesbania): 98%
post-emergent control of morning glory compared with the dicamba salt, in words (morning glory): equivalent to the dicamba salt
% control, 280 g/ha, Morning glory (morning glory): 100%
% control, 420 g/ha, Morning glory (morning glory): 100%
post-emergent control of velvetleaf compared with the dicamba salt, in words (velvetleaf [1]): nearly equivalent to the dicamba salt
% control, 280 g/ha, Velvetleaf (velvetleaf [1]): 72%
% control, 420 g/ha, Velvetleaf (velvetleaf [1]): 84%
% control, 0.25 lb/ac (0.28 kg/hectare) (Euphorbia species): 46%
% control, 0.50 lb/ac (0.56 kg/hectare) (Euphorbia species): 55%
% Injury [2]: 18%
Growth Stage [2]: 8
Dark Control % dicamba [3]: 11%
Conversion to dicamba, 1 day [3, 6]: 28%
Conversion to dicamba, 2 days [3, 6]: 35%
Conversion to dicamba, 3 days [3, 6]: 43%
Conversion to dicamba, 5 days [3, 6]: 48%
Conversion to dicamba, 7 days [3, 6]: 61%
Conversion to dicamba, 11 days ([3]; simulated sunlight 14 hours per day, 35° C., 11 days): 66%
Conversion to dicamba, 15 days ([3]; simulated sunlight 14 hours per day, 35° C., 15 days): 68%
Conversion to Dicamba, Dark, Day 0 ([4]; amber (dark) bottle): 8%
Conversion to Dicamba, Dark, Day 1 ([4]; amber (dark) bottle): 7%
Conversion to Dicamba, Dark, Day 2 ([4]; amber (dark) bottle): 7%
Conversion to Dicamba, Dark, Day 3 ([4]; amber (dark) bottle): 8%
Conversion to Dicamba, Dark, Day 4 ([4]; amber (dark) bottle): 8%
Conversion to Dicamba, Dark, Day 7 ([4]; amber (dark) bottle): 9%
Conversion to dicamba, Dark, Day 11 ([4]; amber (dark) bottle, Day 11): 11%
Conversion to Dicamba, Dark, Day 14 ([4]; amber (dark) bottle): 12%
Conversion to Dicamba, Light, Day 0 ([4]; quartz tube, 14-hour day): 8%
Conversion to Dicamba, Light, Day 1 ([4]; quartz tube, 14-hour day): 9%
Conversion to Dicamba, Light, Day 2 ([4]; quartz tube, 14-hour day): 12%
Conversion to Dicamba, Light, Day 3 ([4]; quartz tube, 14-hour day): 13%
Conversion to Dicamba, Light, Day 4 ([4]; quartz tube, 14-hour day): 13%
Conversion to Dicamba, Light, Day 7 ([4]; quartz tube, 14-hour day): 15%
Conversion to dicamba, Light, Day 11 ([4]; quartz tube, 14-hour day, Day 11): 19%
Conversion to Dicamba, Light, Day 14 ([4]; quartz tube, 14-hour day): 20%
control of a number of broadleaf weeds in field testing, in words (broadleaf weeds): proven effective
